The experiment addresses B-cell lymphoma 6 protein (Homo sapiens, UniProt P41182). As to the kind of experiment: TR-FRET.

In the case of `C[C@@H]1CN(c2nccc(Nc3ccc4c(c3)n(CCC(C)(C)O)c(=O)n4C)n2)C[C@H](C)C1(F)F`, the IC50 is reported as 21 µM (not active).

The values are drawn from ChEMBL document CHEMBL5058646 (2022).
